Assay results reported in US8399502B2, “Analogs of indole-3-carbinol and their use as agents against infection” (priority 2008, dated 2013).
Values after ≈ are worked out from the molar mass of the structure shown.

Columns and labels:
Experiment in all cases: microbe, parasite or virus in culture
Assay type in all cases: cell-based
[1] = test system: Francisella tularensis (FT; Gram-negative); conditions: read-out: MIC FT
[2] = test system: Bacillus anthracis (BA; Gram-positive); conditions: read-out: MIC BA
[3] = test system: methicillin-susceptible Staphylococcus aureus (MSSA); conditions: read-out: MIC MSSA
[4] = test system: methicillin-resistant Staphylococcus aureus (MRSA); conditions: read-out: MIC MRSA
[5] = test system: penicillin-susceptible S. pneumoniae (PSSP); conditions: Streptococcus pneumoniae, read-out: MIC PSSP
[6] = test system: penicillin-resistant S. pneumoniae (PRSP); conditions: Streptococcus pneumoniae, read-out: MIC PRSP
[7] = test system: Yersinia pestis (YP; Gram-negative); conditions: read-out: MIC YP
[8] = test system: Brucella abortus (BAB; Gram-negative); conditions: read-out: MIC BAB
[9] = test system: Burkholderia mallei (BM; Gram-negative); conditions: read-out: MIC BM
[10] = test system: Burkholderia pseudomallei (BP; Gram-negative); conditions: read-out: MIC BP
[11] = test system: Mycobacteruim tuberculosis H37Rv (H37Rv); conditions: Mycobacterium tuberculosis, read-out: MIC against Tubercle bacillus

Row | Compound | MIC [1] [µg/mL] | MIC [2] [µg/mL] | MIC [7] [µg/mL] | MIC [8] [µg/mL] | MIC [9] [µg/mL] | MIC [10] [µg/mL] | MIC [11] [µg/mL] | also measured
1 | c1ccc2c(Cc3[nH]c4ccccc4c3Cc3c[nH]c4ccccc34)c[nH]c2c1 | 2 (≈ 5.33 µM) | 4 (≈ 10.7 µM) | – | – | – | – | – | MIC [3]: 8 µg/mL (≈ 21.3 µM); MIC [4]: 8 µg/mL (≈ 21.3 µM); MIC [5]: 4 µg/mL (≈ 10.7 µM); MIC [6]: 2 µg/mL (≈ 5.33 µM)
2 | Cc1onc(-c2ccccc2)c1C(=O)N[C@@H]1C(=O)N2[C@@H]1SC(C)(C)[C@@H]2C(=O)O [Oxacillin, oxacillin, reference compound] | > 64 | 0.8 (≈ 1.99 µM) | – | – | – | – | – | MIC [4]: > 64 µg/mL; MIC [5]: 0.1 µg/mL (≈ 0.249 µM)
3 | COc1c2[nH]c3ccc(F)cc3c2cc2c1[nH]c1ccc(F)cc12 [drawing 194] | 0.5 (≈ 1.55 µM) | 1 (≈ 3.1 µM) | > 16 | 1 (≈ 3.1 µM) | > 16 | > 16 | – | –
4 | CN(C)CCOc1c2[nH]c3ccc(F)cc3c2cc2c1[nH]c1ccc(F)cc12 [drawing 195] | 0.25 (≈ 0.659 µM) | 0.5 (≈ 1.32 µM) | 8 (≈ 21.1 µM) | 0.5 (≈ 1.32 µM) | 4 (≈ 10.5 µM) | 8 (≈ 21.1 µM) | – | –
5 | CN(C)CC#Cc1c2[nH]c3ccc(F)cc3c2cc2c1[nH]c1ccc(F)cc12 [drawing 210] | 0.25 (≈ 0.67 µM) | 0.5 (≈ 1.34 µM) | 2 (≈ 5.36 µM) | 0.25 (≈ 0.67 µM) | 8 (≈ 21.4 µM) | > 8 | – | –
6 | N=C(N)NCCCOc1c2[nH]c3ccc(Cl)cc3c2cc2c1[nH]c1ccc(Cl)cc12 [drawing 217] | 0.25 (≈ 0.568 µM) | 0.25 (≈ 0.568 µM) | 1 (≈ 2.27 µM) | 0.25 (≈ 0.568 µM) | 1 (≈ 2.27 µM) | 2 (≈ 4.54 µM) | – | –
7 | OC1CCN(CCCOc2c3[nH]c4ccc(Cl)cc4c3cc3c2[nH]c2ccc(Cl)cc23)CC1 [drawing 229] | 0.25 (≈ 0.518 µM) | 0.25 (≈ 0.518 µM) | 2 (≈ 4.15 µM) | 0.25 (≈ 0.518 µM) | 8 (≈ 16.6 µM) | > 8 | – | –
8 | Fc1ccc2[nH]c3c(OCCCn4cncn4)c4[nH]c5ccc(F)cc5c4cc3c2c1 [drawing 231] | 1 (≈ 2.4 µM) | 0.5 (≈ 1.2 µM) | > 8 | 1 (≈ 2.4 µM) | > 8 | > 8 | – | –
9 | N=C(N)NCCCOc1c2[nH]c3ccc(F)cc3c2cc2c1[nH]c1ccc(F)cc12 [drawing 232] | 1 (≈ 2.45 µM) | 0.5 (≈ 1.23 µM) | 8 (≈ 19.6 µM) | 0.25 (≈ 0.614 µM) | 2 (≈ 4.91 µM) | 4 (≈ 9.82 µM) | – | –
10 | Fc1ccc2[nH]c3c(OCCCNC4=NCCN4)c4[nH]c5ccc(F)cc5c4cc3c2c1 [drawing 234] | 2 (≈ 4.61 µM) | 1 (≈ 2.31 µM) | 8 (≈ 18.5 µM) | 2 (≈ 4.61 µM) | 8 (≈ 18.5 µM) | > 8 | – | –
11 | Fc1ccc2[nH]c3c(O[C@@H]4CCNC4)c4[nH]c5ccc(F)cc5c4cc3c2c1 [drawing 253] | ≤ 0.25 | < 0.25 | 1 (≈ 2.65 µM) | < 0.25 | 2 (≈ 5.3 µM) | 4 (≈ 10.6 µM) | – | –
12 | Fc1ccc2[nH]c3c(O[C@H]4CCNC4)c4[nH]c5ccc(F)cc5c4cc3c2c1 [drawing 254] | 0.25 (≈ 0.662 µM) | 0.25 (≈ 0.662 µM) | 1 (≈ 2.65 µM) | < 0.25 | 2 (≈ 5.3 µM) | 4 (≈ 10.6 µM) | – | –
13 | COc1c2[nH]c3ccc(F)cc3c2cc2c1[nH]c1ccc(F)cc12 [drawing 271] | – | – | – | – | – | – | > 10 | –
14 | CN(C)CCOc1c2[nH]c3ccc(F)cc3c2cc2c1[nH]c1ccc(F)cc12 [drawing 272] | – | – | – | – | – | – | 5 (≈ 13.2 µM) | –
15 | CN(C)CC#Cc1c2[nH]c3ccc(F)cc3c2cc2c1[nH]c1ccc(F)cc12 [drawing 273] | – | – | – | – | – | – | 10 (≈ 26.8 µM) | –
16 | N=C(N)NCCCOc1c2[nH]c3ccc(Cl)cc3c2cc2c1[nH]c1ccc(Cl)cc12 [drawing 274] | – | – | – | – | – | – | 10 (≈ 22.7 µM) | –
17 | OC1CCN(CCCOc2c3[nH]c4ccc(Cl)cc4c3cc3c2[nH]c2ccc(Cl)cc23)CC1 [drawing 275] | – | – | – | – | – | – | 10 (≈ 20.7 µM) | –
18 | Fc1ccc2[nH]c3c(OCCCn4cncn4)c4[nH]c5ccc(F)cc5c4cc3c2c1 [drawing 276] | – | – | – | – | – | – | > 10 | –
19 | N=C(N)NCCCOc1c2[nH]c3ccc(F)cc3c2cc2c1[nH]c1ccc(F)cc12 [drawing 277] | – | – | – | – | – | – | 10 (≈ 24.5 µM) | –
20 | Fc1ccc2[nH]c3c(OCCCNC4=NCCN4)c4[nH]c5ccc(F)cc5c4cc3c2c1 [drawing 278] | – | – | – | – | – | – | 10 (≈ 23.1 µM) | –
21 | Fc1ccc2[nH]c3c(O[C@@H]4CCNC4)c4[nH]c5ccc(F)cc5c4cc3c2c1 [drawing 279] | – | – | – | – | – | – | 10 (≈ 26.5 µM) | –
22 | Fc1ccc2[nH]c3c(O[C@H]4CCNC4)c4[nH]c5ccc(F)cc5c4cc3c2c1 [drawing 280] | – | – | – | – | – | – | 5 (≈ 13.2 µM) | –
23 | Cc1c2[nH]c3ccccc3c2cc2c1[nH]c1ccccc12 [drawing 281] | – | – | – | – | – | – | 10 (≈ 37 µM) | –
